Measurements reported in patent publication US20250288520A1, “Microemulsion Pharmaceutical Composition For Treatment Of Disorders Of The Anterior Segment Of The Eye” (SIFI S.P.A., priority 2022, published 2025).

Assay: Bioavailability study in NZW rabbits after single dose topical administration, sorafenib content by LC-MS
Assay type: in vivo
Description: Bioavailability study in NZW rabbits after single dose administration (50 μL topical administration in the right eye) was conducted and content of sorafenib tosylate in plasma (PL), bulbar conjunctivae (BCJ), aqueous humor (AH), cornea (C), vitreous (V), retina (R), and sclera (SC) was evaluated after treatment at t=5, 15, 30, 60, 90, 120 min by LC-MS.
Thirty-six NZW male rabbits, weighing approximately 2 kg, were used in this study. The study was conducted in accordance with GLP standards at the test facility IRIS PHARMA. All animals were treated according to the Directive 2010/63/UE European Convention for the Protection of Vertebrate Animals used for Experimental and Other Scientific Purposes and to the ARVO Statement for the Use of Animals in Ophthalmic and Vision Research. All animals were housed individually in standard cages under identical temperature (18° C.±3° C.), relative humidity (45%-80%), and controlled enrichment conditions and exposed to a 12-h light and darkness cycle in continuously ventilated rooms (15-20 air volumes per hour). They received a standard dry pellet diet and water ad libitum. Only animals with no macroscopic ocular signs of irritation were involved in this study and randomly divided in six time-point groups of 6 animals each (Table 3).
Animals received a single 50 μL topical administration in the right eye and at the time-points listed in Table 3 they were anesthetized by an intramuscular injection of a mix xylazine/ketamine before euthanasia by an intracardiac injection of overdosed pentobarbital. The whole blood in EDTA anticoagulant tubes were sampled by intracardiac puncture, and plasma was prepared and frozen at −23° C.±7° C. Immediately after euthanasia, BCJ, AH, C, V, R, and SC were quickly and carefully dissected from both eyes and weighed, frozen in dry ice and at −23° C.±7° C. until assay. Content of sorafenib was determined in R and PL of both eyes in priority and in AH, BCJ, C, V and SC of both eyes following the rapid resolution liquid chromatography/tandem mass spectrometry method.

CNC(=O)c1cc(Oc2ccc(NC(=O)Nc3ccc(Cl)c(C(F)(F)F)c3)cc2)ccn1 [sorafenib]
concentration at 120 min (male, NZW, rabbit, cornea, topical, 50 μL, 120 min (2 h) post treatment, SD=±596): 1710 ng/g | time of sorafenib maximum content in retina of treated eyes (single 50 μL instillation in right eye): 5 min | sorafenib maximum content in retina of treated eyes (single 50 μL instillation in right eye, 5 min after treatment): 170 ng/g | sorafenib in retina of left untreated eyes (single 50 μL instillation in right eye, all rabbits): no amount of sorafenib was detected | highest detected amount of sorafenib in plasma (two hours after treatment): 2 ng/g
